Laboratory results from article PMC10529921, “Structure–Activity Relationship of Novel ACE Inhibitory Undecapeptides from Stropharia rugosoannulata by Molecular Interactions and Activity Analyses” (Foods, 2023).
Structures can show the parent of a compound that is named as a salt.

What was measured:
SHR rats [1] = assay: Antihypertensive effect after single gavage in SHR rats; format: in vivo, rat (SHR); settings: n = 6
Experimental: (§1) Eleven-week-old male SHR rats and Wistar rats (SiPeiFu (Suzhou) Biotechnology Co., Ltd., Suzhou, China) weighing 200–250 g were used. After 7 d of acclimatization feeding, SHR rats and Wistar rats were randomly grouped into 6 rats per group for a single gavage administration treatment. The undecapeptide and the commercial antihypertensive drug Benazepril hydrochloride were administered in a gavage dose of 10 mg/kg body weight (the recommended dose of Benazepril hydrochloride). SHR rats with regular saline treatment were used as the blank control group. The systolic blood pressure (SBP) and diastolic blood pressure (DBP) of rats were monitored by the Softron BP system (Softron BP-2010A, Tokyo, Japan) at 0, 2, 4, 6, 8, and 24 h after drug administration. At the end of the treatment, the organ coefficients were calculated (organ weight as a percentage of the body weight of the rat, mg/g).
(§2) Data from the in vivo tests were presented as means ± standard deviations of 6 measurements.

SHR rats [2] = assay: Organ coefficients in SHR rats; format: in vivo, rat (SHR); settings: 10 mg/kg, single gavage
Experimental: as §1, §2

Wistar rats = settings: 10 mg/kg, single gavage; low body weight in two rats given as main reason
Experimental: as §1, §2

[3] = 10 mg/kg, most significant effect at 8 h, mean ± SD

Structure (SMILES) | Blood pressure lowering (SBP and DBP), SHR (SHR rats [1]; 10 mg/kg, 2, 4, 6 and 8 h) | Decrease in DBP, SHR (SHR rats [1]; [3]) [mmHg] | Decrease in SBP, SHR (SHR rats [1]; [3]) [mmHg] | Rebound of blood pressure values, SHR (SHR rats [1]; 10 mg/kg) | Time of most significant blood pressure lowering effect, SHR (SHR rats [1]; 10 mg/kg) [h] | Effect on organs, SHR (SHR rats [2]) | Heart organ coefficient vs blank control, SHR (SHR rats [2]; significance p < 0.05) | Kidney organ coefficient, Wistar (Wistar rats)
CCOC(=O)[C@H](CCc1ccccc1)N[C@H]1CCc2ccccc2N(CC(=O)O)C1=O [Benazepril hydrochloride] | better blood pressure lowering effects after 2, 4, 6, and 8 h | 39.17 ± 1.81 | 54.94 ± 1.79 | began to rebound after 8 h | 8 | – | – | –
CC(C)C[C@H](NC(=O)[C@@H]1CCCN1C(=O)[C@H](CCCNC(=N)N)NC(=O)[C@H](CC(C)C)NC(=O)[C@H](CCCNC(=N)N)NC(=O)[C@H](CC(=O)O)NC(=O)[C@H](Cc1ccc(O)cc1)NC(=O)[C@H](CC(=O)O)NC(=O)[C@H](CCC(=O)O)NC(=O)[C@H](CCC(N)=O)NC(=O)CN)C(=O)O | – | – | – | – | – | less impact on the organs of SHR rats | no significant difference | considerably higher
